Measured values: US20240181136A1, “LOW MOLECULAR WEIGHT HYDROGELS COMPRISING THIOGLYCOLIPIDS” (ARIZONA BOARD OF REGENTS ON BEHALF OF THE UNIVERSITY OF …, priority 2021, published 2024)

Columns and labels:
Type in all cases: physicochemical
[1] = Small amplitude oscillatory shear rheology of hydrogels (strain sweep, frequency sweep, thixotropy); conditions: LacSC10 2 wt %, LacSC12 1 wt %
Description: Rheometry. The viscoelastic mechanical properties of the hydrogels were characterized using small amplitude oscillatory shear rheology on a Discovery Hybrid Rheometer 2 (TA Instruments, USA) with a sandblasted 20 mm cone-and-plate geometry at a 1° angle and a sandblasted stage. Inertia, friction, and rotational mapping calibrations were performed prior to each experiment. A Peltier temperature-controlled stage was maintained at 4° C., 10° C., 25° C., or 37° C. for rheology testing. Hydrogels were heated in a water bath above their transition temperature for 5 min, then transferred to the stage before the geometry was lowered quickly (1-3 sec) to the testing gap height of 50 μm. Excess gel was trimmed from the edges of the assembly. To control evaporation, the assembly was encased in a solvent trap with a water seal, and a mineral oil barrier was placed around the edges of the trap. Hydrogels were allowed to form and relax for 1 hour prior to experimentation. Strain sweeps were performed from 0.01% to 1000% shear strain at a constant 10 rad/s angular frequency. G′ (storage modulus) and G″ (loss modulus) were determined by averaging data within the linear viscoelastic region of the strain sweep. Frequency sweeps were performed from 0.01 rad/s to 100 rad/s at a constant 0.01% shear strain. Thixotropy experiments were conducted by cycling the shear strain between 0.01% and 100%. […]

[2] = Differential scanning calorimetry of hydrogels (gel-sol phase transition); conditions: for Phase transition temperature: DSC heating 5° C. per min; for Enthalpy (J/g hydrogel) / Enthalpy (kJ/mol thioglycolipids): gel-sol transition
Description: Differential Scanning calorimetry. A Mettler Toledo DSC 823e differential scanning calorimeter, equipped with cooling apparatus, was used for measurement of the phase transition temperature and enthalpy of the gels. Hydrogel samples were first prepared using the fabrication method described above. Then, they were heated to 75° C. (or 85° C. for LacSC12) until they were in the solution state and then pipetted into aluminum, 40 μL DSC pans and capped with lids. The amount of hydrogel in each aluminum pan was controlled to about 6-8 mg. The pans were maintained at 85° C. for 1 min to ensure the samples were in the solution state. Then, they were cooled to 5° C. and maintained at this temperature for 20 min to ensure the formation of hydrogels. […], the samples were heated from 5° C. to 85° C. at a heating rate at 5° C. per min.
Thermal Properties by DSC. Differential scanning calorimetry (DSC) was used to determine the phase transition temperature as well as to explore the possible existence of other lyotropic phases. DSC involves monitoring the enthalpy change during a phase transition, which can be used as a measure of hydrogel stability. The results (Table 2) indicated an endothermic transition between 30° C. and 80° C. for all thioglycolipid hydrogels studied, and these transitions matched those observed visually in bulk solutions. Overall, hydrogels with longer carbon chains had higher thermostability (i.e., higher phase transition temperature). In addition, the LacSCx (x=10,12) hydrogels had higher thermostability than the CelSCx (x=10,12) hydrogels, despite similar phase transition enthalpies. […] However, the LacSC12 and CelSC12 hydrogels required twice the enthalpy compared to the other three.

[3] = Visual assessment of thioglycolipid aggregation and hydrogel formation; parameters: key to Visual assessment of aggregation and gelation: G = gel; F = fibrous aggregation; C = clear solution; O = cloudy solution; conditions: room temperature
Description: Preparation of Thioglycolipid Solutions and Hydrogel Fabrication. Aqueous solutions of thioglycolipids were prepared by weighing 2-3 mg of thioglycolipids and adding an appropriate volume of water to make solution samples at desired concentrations in vials. The vials were capped, sealed with Parafilm, and heated to 75° C. (or 85° C. for LacSC12) until the thioglycolipids were completely dissolved, which typically required about 1 min. The samples were then allowed to cool to ambient temperature. Above some minimal concentration, the solution forms hydrogels upon cooling (FIG. 1). While hydrogelation happens in under 1 min, the gels were allowed to equilibrate at room temperature for 15 min before any analysis. To make metastable thiocellobiosides gels, the samples were quenched at −4° C. after dissolution at 75° C. Although the metastable hydrogels also formed in under 1 min, the gels were allowed to equilibrate at −4° C. for 15 min before analysis.
Visual Assessment of Thioglycolipid Hydrogel Formation. A wide range of thioglycolipid solutions were evaluated to establish concentration conditions (wt %) under which hydrogelation occurs and to assess the formation of other phases. For LacSC8 and LacSC12 solutions at concentrations <0.5 wt %, the solutions were either clear (C) or contain large aggregates (O) (i.e., cloudy). These solutions formed partial hydrogels surrounded by clear solution between 0.5 but <1 wt %, and were completely gelled at concentrations of 1 wt % and greater. Solutions of LacSC10 at <2 wt % formed partial hydrogels surrounded by clear liquid but were completely gelled at or above 2 wt %. […] CelSC10 and CelSC12 solutions formed settled fibrous aggregates in clear solution after equilibrating at ambient temperature overnight. […] If retained at 5° C. , the CelSC10 and CelSC12 gels were stable for at least 6 months. […] Powder x-ray diffraction confirmed that these fibrous aggregates were crystalline. Overall, the thioglycolipid concentration at which hydrogelation can be observed can be as low as 0.05 wt %, depending on thioglycolipid system, compared to the typical concentration for hydrogelation of at least 1 wt % commonly reported in the literature, although 0.25-2 wt % is the concentration range wherein these thioglycolipid solutions became fully hydrogelled. The existence of metastable hydrogels and the ability to tune the transformation of hydrogels into crystals may allow their potential use as smart materials for different applications.

[4] = Stability of hydrogel disks in aqueous media of various pH
Text: Stability of some of the representative hydrogels of the invention in various pH aqueous media was investigated.

[5] = thioglycolipid concentration 0.05 wt %
[6] = thioglycolipid concentration 0.1 wt %
[7] = thioglycolipid concentration 0.25 wt %
[8] = thioglycolipid concentration 0.5 wt %
[9] = thioglycolipid concentration 0.75 wt %
[10] = thioglycolipid concentration 1 wt %
[11] = thioglycolipid concentration 2 wt %
[12] = thioglycolipid concentration 5 wt %
[13] = thioglycolipid concentration 10 wt %

With `CCCCCCCCCCS[C@@H]1O[C@H](CO)[C@@H](O[C@@H]2O[C@H](CO)[C@H](O)[C@H](O)[C@H]2O)[C@H](O)[C@H]1O` [LacSC10] the “Gel properties at 37° C.” value [1] was “retained their gel properties”, the Phase transition temperature ([2]; 2 wt % hydrogel) was 57-64 °C and the “Enthalpy (J/g hydrogel)” value ([2]; 2 wt % hydrogel) was 0.35 ± 0.02 J/g hydrogel. The “Enthalpy (kJ/mol thioglycolipids)” value ([2]; 2 wt % hydrogel) was 8.8 ± 0.5 kJ/mol thioglycolipids, the “Concentration at which solutions were completely gelled” value [3] was ≥ 2 wt % and the “Visual assessment of aggregation and gelation” value (“Visual assessment” below) [3, 5] was “G + C”. For the same compound, the “Visual assessment” value [3, 6] was “G + C”, the “Visual assessment” value [3, 7] was “G + C” and the “Visual assessment” value [3, 8] was “G + C”. For the same compound, the “Visual assessment” value [3, 9] was “G + C”, the “Visual assessment” value [3, 10] was “G + C” and the “Visual assessment” value [3, 11] was “G”. For the same compound, the “Visual assessment” value [3, 12] was “G”, the “Visual assessment” value [3, 13] was “G” and the “Hydrogel disk size or volume in aqueous media” value ([4]; pH 2, 7.4 and 10, days 1-21) was “No observable decrease in disk size or volume”. For the same compound, the “Time hydrogel disks are stable in aqueous media” value ([4]; pH 2, 7.4 and 10, maximum time investigated) was “stable in these aqueous media for over two months”.

With `CCCCCCCCCCCCS[C@@H]1O[C@H](CO)[C@@H](O[C@@H]2O[C@H](CO)[C@H](O)[C@H](O)[C@H]2O)[C@H](O)[C@H]1O` [LacSC12] the “Gel properties at 37° C.” value [1] was “retained their gel properties”, the Phase transition temperature ([2]; 1 wt % hydrogel) was 63-79 °C and the “Enthalpy (J/g hydrogel)” value ([2]; 1 wt % hydrogel) was 0.39 ± 0.10 J/g hydrogel. The “Enthalpy (kJ/mol thioglycolipids)” value ([2]; 1 wt % hydrogel) was 20.7 ± 5.3 kJ/mol thioglycolipids, the “Visual assessment” value [3, 5] was “O” and the “Visual assessment” value [3, 6] was “O”. For the same compound, the “Visual assessment” value [3, 7] was “O”, the “Visual assessment” value [3, 8] was “G + C” and the “Visual assessment” value [3, 9] was “G + C”. The “Visual assessment” value [3, 10] was “G”, the “Visual assessment” value [3, 11] was “G” and the “Visual assessment” value [3, 12] was “G”. For the same compound, the “Visual assessment” value [3, 13] was “G”.
